Experimental data from US20220009987A9, “HUMAN RESISTIN COMPOSITIONS AND METHODS OF TREATING TLR4-MEDIATED DISEASE AND INFECTION” (THE REGENTS OF THE UNIVERSITY OF CALIFORNIA, priority 2017, published 2022).

Legend:
human PBMCs = experiment: Human PBMC functional assay, LPS-induced cytokine secretion (ELISA); format: cell-based; conditions: human PBMC, pre-treatment then LPS 100 ng/mL
Experimental: (§1) Human PBMCs. Human buffy coat was purchased from Zen-bio. Buffy coat was overlaid on top of Histopaque-1077 and spun at 700g at 25° C. with no brake and PBMCs were recovered from the interphase. PBMCs were plated in 96-well plates and stimulated with mammalian-derived human resistin (1 μg/mL, LifeSpan Biosciences) or hRetn N-peptide (1 μg/mL). After 24 hours, ultrapure LPS (100 ng/mL, Invivogen) was added and supernatants recovered for ELISA at 24 hours. Where indicated, cells were incubated for 4 hours with STAT3 (5, 15-DPP, 50 μM) or TBK1 (BX-795, 1 μM) inhibitors prior to hRetn treatment. For the hRetn competitive binding assay, 1×10^6 cells were incubated with recombinant hRetn (0.5 μg), washed in PBS then incubated with 0.5 μg LPS-biotin (incubations were 30 minutes on ice). Cells were washed in FACS buffer, treated with Fc block, and stained with BV605-conjugated streptavidin and α-human primary antibodies: CD14 (clone M5E2), CD11 b (clone M1/70) and MD2/TLR4 (clone HTA125) purchased from Affymetrix.
Cytokine Quantification. Sandwich ELISAs were performed using capture and biotinylated antibodies for human resistin (Peprotech), IL-10 and TNFα (BD Biosciences) according to manufacturer's instructions. Detection was performed with streptavidin-peroxidase (Jackson ImmunoResearch) and TMB peroxidase substrate (BD Biosciences), followed by addition of 2N H2SO4. Optical density (OD) was captured at 450 nm. Samples were compared to serial-fold dilution of recombinant protein. For Luminex, inflammatory cytokine kits (Affymetrix) were run according to manufacturer's instructions and quantified on Luminex MagPix (Luminex Corp.). For cytokine bead array, cytokine kits from BD Bioscience were run according to manufacturer's instructions on BD LSRII and analyzed using FCAP Array Software.

human TLR4 = human TLR4 (Homo sapiens, UniProt O00206); experiment: Pull-down assay with His-tagged human TLR4; format: binding; conditions: pre-incubation of His-TLR4 with 500 ng/ml N-peptide, anti-Flag blot
Experimental: Pull-down Assay. 1 μg/ml protein His-tagged MBP, human TLR4 and human CAP1 were added to nickel-nitrilotriacetic acid-agarose beads (Invitrogen) in binding buffer (50 mM NaH2PO4, 500 mM NaCl, 10 mM Imidazole, pH 8.0) and mixed for 1 hour at 4° C., followed by washing and 1 h incubation at 4° C. with hRetn (E. coli-derived, Peprotech or 293T cell-derived, LifeSpan Biosciences) in binding buffer. Beads were washed in wash buffer (50 mM NaH2PO4, 500 mM NaCl, 20 mM Imidazole, pH 8.0), and complex protein eluted with elution buffer (50 mM NaH2PO4, 500 mM NaCl, 250 mM Imidazole, pH 6.0). His-MBP, His-TLR4 and His-CAP1 were detected by anti-His antibody (Abcam), and hRetn was detected by anti-hRetn antibody (donated by Mitchell Lazar) by Western Blot. For the N-peptide binding experiment, 1 μg/ml His-tagged human TLR4 with 500 ng/ml N-peptide or 10% TFE control was added to the beads in binding buffer and mixed for 30 min at 4° C., followed by co-immunoprecipitation using 1 μg/ml Flag-hRetn (LifeSpan Biosciences), anti-His or anti-Flag (Sigma).

CD14+CD11b+ monocytes = experiment: Competitive resistin/LPS binding assay on human PBMCs (flow cytometry); format: cell-based; conditions: for LPS binding to CD14+CD11b+ monocytes: pre-incubation before LPS-biotin, on ice
Experimental: as §1

Sequence of human TLR4 (O00206 24-839): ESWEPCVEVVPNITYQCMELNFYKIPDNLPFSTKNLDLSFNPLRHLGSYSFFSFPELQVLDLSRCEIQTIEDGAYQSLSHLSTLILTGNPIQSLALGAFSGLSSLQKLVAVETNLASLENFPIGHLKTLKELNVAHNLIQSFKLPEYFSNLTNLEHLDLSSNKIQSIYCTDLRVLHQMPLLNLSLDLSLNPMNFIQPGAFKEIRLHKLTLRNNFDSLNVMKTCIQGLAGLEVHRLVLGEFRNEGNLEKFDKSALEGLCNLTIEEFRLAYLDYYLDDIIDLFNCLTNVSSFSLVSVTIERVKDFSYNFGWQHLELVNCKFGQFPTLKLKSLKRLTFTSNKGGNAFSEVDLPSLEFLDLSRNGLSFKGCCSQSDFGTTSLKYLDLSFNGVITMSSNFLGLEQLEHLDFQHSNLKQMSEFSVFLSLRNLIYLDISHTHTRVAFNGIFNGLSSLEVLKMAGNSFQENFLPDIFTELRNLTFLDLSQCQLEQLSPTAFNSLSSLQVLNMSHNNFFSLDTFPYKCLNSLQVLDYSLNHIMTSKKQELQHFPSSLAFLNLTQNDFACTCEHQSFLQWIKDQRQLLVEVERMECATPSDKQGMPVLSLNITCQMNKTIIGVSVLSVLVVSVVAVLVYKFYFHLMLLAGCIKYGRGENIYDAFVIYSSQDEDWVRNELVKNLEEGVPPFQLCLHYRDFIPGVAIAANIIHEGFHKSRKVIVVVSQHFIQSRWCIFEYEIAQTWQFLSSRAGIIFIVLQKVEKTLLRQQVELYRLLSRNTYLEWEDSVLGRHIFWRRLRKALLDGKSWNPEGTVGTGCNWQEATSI

| Compound | IL-10 expression after LPS (human PBMCs) | LPS-induced TNFα secretion (human PBMCs) | competitive inhibition of Flag-tagged full-length hRetn binding to hTLR4 (human TLR4) | LPS-promoted surface MD2/TLR4 complex formation (CD14+CD11b+ monocytes; human PBMC, flow cytometry) | LPS binding to CD14+CD11b+ monocytes (CD14+CD11b+ monocytes) | LPS binding to CD14+CD11b+ monocytes (CD14+CD11b+ monocytes; listed as N-pep) |
| --- | --- | --- | --- | --- | --- | --- |
| O=C(NCCCNc1nc(Nc2cccc(NC(=O)N3CCCC3)c2)ncc1I)c1cccs1 [TBK1 inhibitor, BX-795, reference compound] | increased IL-10 expression | significantly reduced LPS-induced TNFα | – | – | – | – |
| hRetn N-peptide: synthesized hRetn N-terminal peptide (1-23 a.a.), SEQ ID NO: 2 (MEEAINERIQEVAGSLIFRAISS) (listed as Homo sapiens) | – | significantly more efficient at suppressing LPS-induced TNFα than full-length hRetn | sufficient to abrogate binding of full-length hRetn | abrogated | inhibited LPS binding | abrogated the binding of LPS in human PMBCs similar to full-length hRetn |
